We go through 19 compounds from patent US4801616A, “Diphenylmethanone compounds and anti-inflammatory use thereof” (Eli Lilly and Company, priority 1986, dated 1989).

The target of one test is T1, 5-lipoxygenase (Cavia porcellus, UniProt A0A286X958).
T1 construct: incubating 0.2 ml of the supernatant obtained from the PMNL sonicate with the test compound; from tissue; host or cells: casein-elicited guinea pig peritoneal polymorphonuclear leukocytes (PMNL, more than 95 percent of the cells), sonicated, 30,000 x g supernatant
T1 sequence (A0A286X958 1-674): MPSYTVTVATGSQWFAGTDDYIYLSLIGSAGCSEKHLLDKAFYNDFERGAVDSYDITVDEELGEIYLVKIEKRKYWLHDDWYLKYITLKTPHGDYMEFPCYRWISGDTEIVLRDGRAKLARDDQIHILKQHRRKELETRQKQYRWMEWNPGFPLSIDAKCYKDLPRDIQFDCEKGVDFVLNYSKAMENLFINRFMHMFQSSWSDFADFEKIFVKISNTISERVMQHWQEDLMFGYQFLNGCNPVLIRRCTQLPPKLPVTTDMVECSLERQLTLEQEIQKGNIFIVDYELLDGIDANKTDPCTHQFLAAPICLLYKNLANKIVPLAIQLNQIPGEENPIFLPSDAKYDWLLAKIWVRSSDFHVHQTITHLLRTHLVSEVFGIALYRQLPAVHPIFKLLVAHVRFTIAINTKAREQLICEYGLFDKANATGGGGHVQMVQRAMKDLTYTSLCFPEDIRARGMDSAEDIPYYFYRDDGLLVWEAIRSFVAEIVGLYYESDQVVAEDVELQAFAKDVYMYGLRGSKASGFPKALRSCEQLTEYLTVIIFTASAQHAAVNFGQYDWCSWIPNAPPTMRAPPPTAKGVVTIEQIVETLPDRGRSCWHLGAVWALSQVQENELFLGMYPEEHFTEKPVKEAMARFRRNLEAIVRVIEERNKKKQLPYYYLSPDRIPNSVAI
Kind of test: 5-Lipoxygenase (5-LPO) Assay, inhibition of 5-HETE formation in PMNL sonicate supernatant. The test is classed as biochemical, guinea pig. The following applies: for inhibition at 30 µg/mL: percent inhibition at 30 μg/ml. On the procedure: 5-Lipoxygenase (5-LPO) Assay
Ten milliliters of a 2% casein solution were injected intraperitoneally into guinea pigs weighing 250-300 gm. After 16-18 hours, the guinea pigs were killed by suffocation in a carbon dioxide chamber. The peritoneal cavity was infused with 70 ml of saline and 40-50 ml of the fluid were recovered from the cavity. After centrifugation, cell pellets were washed twice in Hank's balanced salt solution (HBSS) without calcium ion.
The cells were then suspended in 5 ml of sodium phosphate buffer, pH 7.1 containing 1 mM EDTA, and 0.1% gelatin. About 20-30×10^7 cells were obtained from one guinea pig.
The PMNL suspension was disrupted by five 1/2 second pulse sonications at the setting of 3 in a Branson Sonifier, Model 350, equipped with a microtip. The sonicates were combined and centrifuged at 30,000× g for 10 minutes. The supernatant was kept frozen at -70° C. until use.
Enzyme activity was determined by assaying for 5-HETE formation by first incubating 0.2 ml of the supernatant obtained from the PMNL sonicate with the test compound, 1 mM CaCl2, 2 mM ATP, and 1 mM GSH for 5 minutes at 37° C. The mixture is treated with 5 μM ^14 C-arachidonicacid and incubated at 37° C. an additional 10 minutes. The enzyme reaction was then stopped by the addition of 10 μl of 1M citric acid and 10μl of an alcohol solution containing 20 mg/ml each of indomethacin and butylated hydroxyanisole (BHA). The reaction mixture was spotted (50 μl on a silica gel plate (Baker TLC plate S1250-PA-19C) and subjected to TLC in a solvent system of ethyl acetate/2,2,4-trimethylpentane/glacial acetic acid/water (90:50:20:100).
The radioactivity of the arachidonic acid and its metabolites (5-HETE and LTB4) was visualized from a developed x-ray film which had been exposed to the TLC plate 1-2 days. The amount of 5-HETE formed was quantitated by scraping the silica gel area corresponding to the spot on the x-ray film, and the radioactivity determined in a Isocap/300 liquid scintillation counter (Searle Analytic, Inc.).
The percent inhibition of the formation of 5-HETE was determined for each concentration of test compound tested as compared to a control experiment wherein no test compound was added. The concentration and percent inhibition values were plotted on semi log paper and the concentration in which formation of 5-HETE is inhibited by 50% (IC50) was determined by interpolation.

In test [1] the target is T2, fatty acid cyclooxygenase (Homo sapiens, UniProt P23219).
T2 construct: The solubilized fatty acid cyclooxygenase was applied to a 440 ml electrofocusing column; from tissue; host or cells: human platelets: microsomes solubilized with Triton X-100, purified by electrofocusing and G-200 Sephadex
Kind of test: Fatty Acid Cyclooxygenase (FCO) Assay, inhibition of PGE2 formation by purified human platelet enzyme. The class given is biochemical. Conditions: for IC50: human platelet microsomal enzyme, pH 8.0, 37° C.; for inhibition at 30 µg/mL: percent inhibition at 30 μg/ml. On the procedure: Fatty Acid Cyclooxygenase (FCO) Assay
Microsomes were prepared from 185 bags of human platelets (each bag containing the platelets from one pint of blood prepared using differential centrifugation procedures). The platelets from approximately 60 bags were prepared at one time. Platelet-rich plasma (500 g) was centrifuged at 10,000×g for 20 minutes, and the platelet pellet was suspended in 100 ml of 0.1M potassium phosphate buffer, pH 8.0, with a Teflon glass homogenizer and sonicated for 5.0 minutes with a Bronson Sonifier (Model 350) in a rosette flask cooled in ice water. Disrupted platelets were centrifuged 15 minutes at 10,000× g. The supernatant was centrifuged at 100,000× g for 90 minutes and the microsomal pellets were homogenized in 25 ml of 20% sucrose containing 1.0% Triton X-100 detergent. After 30 minutes at 4° C., the solubilized microsomes were centrifuged at 100,000× g for 60 minutes. The yellow supernatant was removed and stored at -70 ° C.
The solubilized fatty acid cyclooxygenase was applied to a 440 ml electrofocusing column (LKB-8012) containing 1% phisolytes (Brinkman Instruments, Westburgh, NY), pH 2-11, with the cathode at the top of the column. The enzyme was layered onto the column at the appropriate time so that its sucrose concentration was equal to that of the column gradient. This was accomplished by checking the gradient concentration periodically with a sucrose hand refractometer. Electrofocusing was carried out for 16 hours with an initial voltage of 400 V and a final voltage of 900-1,000 volts. Fractions were collected (20 ml) and assayed for PGE2 formation. Active peak fractions were pooled and concentrated by ultrafiltration (XM 100A) to a volume of 3-5 ml.
Active fractions from electrofocusing were applied to a G-200 Sephadex column (2 cm×46 cm) and eluted with 10 mM potassium phosphate buffer, pH 7.0, in 5 ml fractions. After assay, active fractions were poored and concentrated to 1.0 ml by ultrafiltration (XM 100A), and kept frozen at -70° C.
Enzyme activity was determined by assaying for PGE2 formation by preincubating the enzyme with 10 mmol/l imidazole phosphate buffer, pH 8.0, 2 mmol/l epinephrine, 2 mmol/l methemoglobin, and the test compound (30 μg/ml) in a total volume of 0.2 ml for one minute at 37° C. After preincubation, 5 mmol/l ^14 C-arachidonic acid were added and the mixture was incubated an additional 0.5 minutes at 37° C. The enzyme reaction was stopped by the addition of 2 μl of indomethacin (2 mg/ml) in alcohol.
The reaction mixture was spotted (50 μl) on a silica gel (LQ6D) plate and subjected to TLC. The solvent system consisted of chloroform-methanol-glacial acetic acid (90:5:5, v/v/v) and the relative mobilities were PGF2α =0.235, and PGE2 =0.47. The silica gel on the plate was scraped in 1 cm sections, suspended in 5 ml of the scintillation fluid [5.88 g of 2,5-diphenyloxazole and 118 mg of 1,4 -bis(5-phenyloxazol-2-yl)benzene] dissolved in 650 ml of toluene and 350 ml of Triton X-100) and the radioactivity was determined in an Isocap/300 liquid scintillation counter (Searle Analytic, Inc., Southfield, Mich.). Another 50 μl of the mixture was added to 10 ml of the Triton X-100 based scintillation fluid, and the radioactivity was determined so that the amount of radioactivity recovery from the TLC plate could be ascertained. PGE2 formation for each test compound was determined as a percent of control experiments wherein no test compound was added. Data is expressed in Table I either as the percent inhibition of formation of PGE2 at a test compound concentration of 30 μ g/ml, or as an IC50 for inhibition of PGE2 formation.

Setting [2] is: guinea pig PMNL sonicate supernatant, 37° C., 5 μM 14C-arachidonic acid.

T2 sequence (P23219 24-599): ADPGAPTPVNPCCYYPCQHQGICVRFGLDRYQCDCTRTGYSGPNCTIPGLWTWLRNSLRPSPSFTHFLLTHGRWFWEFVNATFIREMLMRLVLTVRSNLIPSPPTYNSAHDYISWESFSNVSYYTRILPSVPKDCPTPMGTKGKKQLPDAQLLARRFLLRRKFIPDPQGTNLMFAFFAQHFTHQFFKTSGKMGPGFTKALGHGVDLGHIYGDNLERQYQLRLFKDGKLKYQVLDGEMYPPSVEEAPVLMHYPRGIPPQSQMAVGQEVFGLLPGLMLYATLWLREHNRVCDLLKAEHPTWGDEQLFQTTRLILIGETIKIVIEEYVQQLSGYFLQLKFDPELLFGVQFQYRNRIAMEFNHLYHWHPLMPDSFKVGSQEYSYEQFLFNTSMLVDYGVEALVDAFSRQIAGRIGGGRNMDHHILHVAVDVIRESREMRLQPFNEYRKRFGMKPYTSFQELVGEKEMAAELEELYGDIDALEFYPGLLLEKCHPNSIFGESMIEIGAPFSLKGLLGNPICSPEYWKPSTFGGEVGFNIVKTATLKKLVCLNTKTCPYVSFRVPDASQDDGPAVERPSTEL

The IC50 is the concentration at which inhibition is half-maximal. Lower therefore signals inhibition by little substance. For the compound `CCCc1c(OC)ccc(C(=O)c2ccccc2OC)c1OC` [Example 1, (2,4-Dimethoxy-3-propylphenyl)(2-methoxyphenyl)methanone], the IC50 against 5-lipoxygenase (setting [2]) was 0.954 µM; in test [1] it was 17.5 µM. Taken in the same sequence, the figures for `CCCc1c(OC)ccc(C(=O)c2ccccc2O)c1OC` [Example 2, (2,4-Dimethoxy-3-propylphenyl)(2-hydroxyphenyl)methanone] were 2.66 µM and 9.32 µM. With `CCCc1c(OC)ccc(C(=O)c2ccccc2O)c1O` [Example 3, (2-Hydroxy-4-methoxy-3-propylphenyl)(2-hydroxyphenyl)methanone], the results for the IC50 (on 5-lipoxygenase (setting [2]); in test [1]) were 1.05 µM and 4.89 µM, respectively. What is called inhibition is the share of the control response that was lost under treatment. High values mean strong suppression, low ones little suppression. With `CCCc1c(OC(C)=O)ccc(C(=O)c2ccccc2OC(C)=O)c1O` [Example 6, [4-(Acetyloxy)-2-hydroxy-3-propylphenyl][2(acetyloxy)phenyl]methanone], the midpoint of inhibition against 5-lipoxygenase (setting [2]), the IC50, lay at 11.2 µM. In addition, the inhibition at 30 µg/mL in test [1] came out at 12%. On to `CCCc1cc(C(=O)c2ccccc2O)c(O)c(CCC)c1O` [Example 7, (2,4-Dihydroxy-3,5-dipropylphenyl)(2-hydroxyphenyl)methanone], for which the IC50 against 5-lipoxygenase (setting [2]) was 63.6 µM; in test [1], 17.5 µM.

`CCCc1c(O)ccc(C(=O)c2ccccc2Cl)c1O` [Example 10, (2-Chlorophenyl)(2,4-dihydroxy-3-propylphenyl)methanone] gave an IC50 at 5-lipoxygenase (setting [2]) of 17.2 µM. In test [1], the inhibition at 30 µg/mL is 100%.

`CCCc1c(OCC#N)ccc(C(=O)c2ccccc2O)c1O` [Example 12]: the values for the IC50 (against 5-lipoxygenase (setting [2]); in test [1]) were 22.5 µM and 32.1 µM, respectively.

On 5-lipoxygenase (setting [2]), `CCCc1c(OCCCCCC#N)ccc(C(=O)c2ccccc2O)c1O` [Example 13, 6-[3-Hydroxy-4-(2-hydroxybenzoyl)-2-propylphenoxy]hexanenitrile] gave an IC50 of 5.44 µM. The inhibition at 30 µg/mL in test [1] came to 40%. In the same order, the values of `CCCc1c(OCCCCCCC#N)ccc(C(=O)c2ccccc2O)c1O` [Example 14, 7-[3-Hydroxy-4-(2-hydroxybenzoyl)-2-propylphenoxy]heptanenitrile] are 0.524 µM and 37%.

Regarding `CCCc1c(OCc2ccc(C#N)cc2)ccc(C(=O)c2ccccc2O)c1O` [Example 17, 4-([3-Hydroxy-4-(2-hydroxybenzoyl)-2-propylphenoxy]methyl)benzonitrile], the inhibition at 30 µg/mL against 5-lipoxygenase was 94%; in test [1] it was 48%.

At 5-lipoxygenase (setting [2]), `CCCc1c(OCCCCC#N)ccc(C(=O)c2ccccc2OC)c1O` [Example 18, 5-[3-Hydroxy-4-(2-methoxybenzoyl)-2-propylphenoxy]pentanenitrile] gave an IC50 of 21.8 µM. The inhibition at 30 µg/mL in test [1] was found to be 15%. `CCCc1c(OCCCCC#N)ccc(C(=O)c2ccccc2OC)c1OC` [Example 19, 5-[3-Methoxy-4-(2-methoxybenzoyl)-2-propylphenoxy]pentanenitrile] had an IC50 against 5-lipoxygenase (setting [2]) of 26.2 µM. The compound further had an inhibition at 30 µg/mL in test [1] of 9%.

Compound `C=C(c1ccccc1OC)c1ccc(OCCCCC#N)c(CCC)c1OC` [Example 20, 5-(3-Methoxy-4-[1-(2-methoxyphenyl)ethenyl]2-propylphenoxy)pentanenitrile] showed an IC50 at 5-lipoxygenase (setting [2]) of 79.1 µM. Turning to `CCCc1c(OCc2nnn[nH]2)ccc(C(=O)c2ccccc2O)c1O` [Example 21, (2-Hydroxyphenyl)[2-hydroxy-3-propyl-4-(1H-tetrazol-5-ylmethoxy)phenyl]methanone], the inhibition at 30 µg/mL (on 5-lipoxygenase; in test [1]) was 0% each time. In the case of `CCCc1c(OCc2ccc(-c3nnn[nH]3)cc2)ccc(C(=O)c2ccccc2O)c1O` [Example 22, (2-Hydroxyphenyl)[2-hydroxy-3-propyl-4([4-(1H-tetrazol-5-yl)phenyl]methoxy)phenyl]methanone], the half-maximal inhibitory concentration (IC50) against 5-lipoxygenase (setting [2]) was 9.29 µM; in test [1] it was 32.5 µM. At 5-lipoxygenase (setting [2]), `CCCc1c(OCCCCCc2nnn[nH]2)ccc(C(=O)c2ccccc2O)c1O` [Example 24, (2-Hydroxyphenyl)[2-hydroxy-3-propyl-4-([5-(1H-tetrazol-5-yl)pentyl]oxy)phenyl]methanone] showed a half-inhibitory concentration (IC50) of 29.2 µM.

With `CCCc1c(OCCCc2nnn[nH]2)ccc(C(=O)c2ccccc2O)c1O` [Example 27, (2-Hydroxyphenyl)(2-hydroxy-3-propyl-4-[3-(1H-tetrazol-5-yl)propoxy]phenyl)methanone], at 5-lipoxygenase (setting [2]), the IC50 was 10.5 µM. Moreover, in test [1], testing at 30 µg/mL gave an inhibition of 15%. On to `CCCc1c(OCCCCc2nnn(C)n2)ccc(C(=O)c2ccccc2OC)c1O` [Example 32, (2-Hydroxy-4-[4-(2-methyl-2H-tetrazol-5yl)butoxy]-3-propylphenyl)(2-methoxyphenyl)methanone], for which the IC50 against 5-lipoxygenase (setting [2]) is 0.471 µM.

In the case of “(2,3-Dihydro-4-hydroxy-2-methyl-7-benzofuranyl)(2-hydroxyphenyl)methanone [Example 8]”, the “IC50 5-LPO (inhibition of 5-HETE formation)” value at 5-lipoxygenase (setting [2]) was 8 µg/mL.
